We go through 3 molecules from US20090291964A1, “Potentiators of Antibacterial Activity” (priority 2003, published 2009).

Common to all, as to format: cell-based
For one test, the system named is E. faecalis ATCC 29212. Nature of the test: MIC by NCCLS microdilution, EtBr/EPI with and without EPI. As to conditions: for MIC: Enterococcus faecalis, ATCC29212; for intrinsic antibacterial activity of EPI: at 100 μg/ml, E. faecalis. On the procedure:
(§1) 3% sterile laked horse blood (Quad Five, Ryegate, Mont.) was added to assays for E. faecalis and S. Pneumoniae. A final concentration of 1% DMSO was present in all assays.
(§2) EtBr is a general substrate for many different efflux pumps in bacteria. Markham et al., “Multiple Novel Inhibitors of the NorA Multidrug Transporter of Staphylococcus aureus”, Antimicrob. Agents Chemother. 43:2404-2408 (1999). Since EtBr is a non-specific DNA intercalator, the only known mechanism of resistance to EtBr is via efflux. Markham et al., “Multiple Novel Inhibitors of the NorA Multidrug Transporter of Staphylococcus aureus”, Antimicrob. Agents Chemother. 43:2404-2408 (1999).
On the technique in general: Broth dilution looks for growth in wells or tubes with falling amounts of substance.

For the next test, the system named is S. pneumoniae ATCC 10015. The test is described as above. To be noted: for MIC: Streptococcus pneumoniae, ATCC10015; for intrinsic antibacterial activity of EPI: at 100 μg/ml. On the procedure: as §1, §2
The subject of the next test is S. aureus ATCC 29213. Kind of test: Ethidium bromide efflux fluorescence assay. To be noted: EPIs at 4 times MEC for EtBr, A-106 at 100 μg/ml; versus control cells without EPI. On the procedure: S. aureus cells were loaded with EtBr as described in Example 1. EPIs were used at 4XMEC (minimal effective concentration) (25 μg/ml reserpine; 100 μg/ml VX-710 (compound A-106 in Table A-2); 6.25 μg/ml VX-853 (compound C-9 in Table C-I), and no EPI control—as labeled). Fluorescence was continuously monitored over time at room temperature and results are an average of at least 3 replicates.
Ethidium bromide (EtBr) efflux assays with S. aureus were performed using the method described by Markham et al. (Markham, et al., “Multiple Novel Inhibitors of the NorA Multidrug Transporter of Staphylococcus aureus”, Antimicrob. Agents Chemother. 43:2404-2408 (1999)). […] Ethidium bromide efflux was determined by continuously monitoring fluorescence at an excitation wavelength of 530 nm and an emission wavelength of 600 nm in a black 96-well polystyrene plate with clear, flat bottom (Costar #3904, Cambridge, Mass.) using a SpectraMax Gemini spectrofluorimeter (Molecular Devices, Sunnydale, Calif.). […]
Markham et al., “Multiple Novel Inhibitors of the NorA Multidrug Transporter of Staphylococcus aureus”, Antimicrob. […] Since ethidium only fluoresces when it is bound to nucleic acid inside of cells, a decrease in fluorescence over time is due to active efflux. […]

Test [1] deals with S. aureus SA-K2068 (non-NorA multidrug efflux pump overproducing). Nature of the test: microbe, parasite or virus in culture. As to conditions: for reduction of MIC of ciprofloxacin / reduction of MIC of gatifloxacin / reduction of MIC of levofloxacin / reduction of MIC of norfloxacin: K2068, EPIs at 4 times MEC for EtBr, A-106 at 100 μg/ml; for MIC: Staphylococcus aureus, read-out: MIC of EtBr with EPI; for Fold-reduction in MIC: gatifloxacin, S. aureus K2068 (nonNorA pump overproducer).
Source text: A variety of strains may be used in these experiments, including, but not limited to, S. aureus ATCC 29213, E. faecalis ATCC 29212, and S. pneumoniae, S. aureus strains SA-1199, SA-1199B, SA-8325-4, and SA-K2068. S. aureus ATCC 29213, E. faecalis ATCC 29212, and S. pneumoniae ATCC 10015 were obtained from the American Type Culture Collection (Manassas, Va.). S. aureus strains SA-1199 (clinical isolate, susceptible), SA-1199B (SA-1199, NorA overproducing, also has A116E GrlA mutation), SA-8325-4 (NCTC 8325 cured of prophages), SA-K2068 (SA-8325-4, non-NorA multidrug efflux pump overproducing mutation) were obtained from Glenn Kaatz (Kaatz et al., “Identification and characterization of a novel efflux-related multidrug resistance phenotype in Staphylococcus aureus”, J. Antimicrob. Chemother. 50:833-838 (2002); 1993; Kaatz et al., “Phenothiazines and thioxanthenes inhibit multidrug efflux pump activity in Staphylococcus aureus”, Antimicrob. Agents Chemother. 47:719-726, Kaatz et al., “Efflux-mediated fluoroquinolone resistance in Staphylococcus aureus. Antimicrob. Agents Chemother.”, 37:1086-1094, 1993)).
as §1
Recent more hydrophobic fluoroquinolones such as gatifloxacin and moxifloxacin are less well recognized by NorA; however, recently one other pump in S. aureus has been described which also recognizes hydrophobic fluoroquinolones (Kaatz et al. 2002, supra). To investigate the potential of A-106 and C-9 to block the efflux of several fluoroquinolones in cells with constituitively over-expressed efflux pumps, we used S. aureus strains SA-1199B and K2068 (Table 3). […] Kaatz et al., “Phenothiazines and thioxanthenes inhibit multidrug efflux pump activity in Staphylococcus aureus”, Antimicrob. Agents Chemother. 47:719-726 (2003).

The test system of another test is B. subtilis. Kind of test: MIC of EtBr in presence and absence of EPI. To be noted: B. subtilis wild type, EPI up to 100 μg/ml, data not shown.
Source text: as §2

The test system of test [2] is permeability mutant strains of E. coli. Nature of the test: MIC of EtBr in presence and absence of EPI.
Source text: as §2

For test [3], the system named is wild type gram negative organisms (E. coli, P. aeruginosa, and H. influenzae). Kind of test: MIC of EtBr in presence and absence of EPI. As to conditions: all wild type gram-negative organisms, compared with gram-positive.
Source text: as §2

[4] abbreviates: E. faecalis ATCC 29212, EPIs used at the MEC, except VX-710 at 100 μg/ml.
The mark [5] stands for this setting: E. faecalis ATCC 29212, EPI alone, read-out: MIC of EPI.
Where [6] appears, read: E. faecalis ATCC 29212, EPIs used at the MEC, except VX-710 at 100 μg/ml, read-out: MIC of EtBr with EPI.
Setting [7] is: S. pneumoniae ATCC 10015, EPIs used at the MEC, except VX-710 at 100 μg/ml.
Where [8] appears, read: S. pneumoniae ATCC 10015, EPI alone, read-out: MIC of EPI.
Where [9] appears, read: S. pneumoniae ATCC 10015, EPIs used at the MEC, except VX-710 at 100 μg/ml, read-out: MIC of EtBr with EPI.
[10] abbreviates: S. aureus K2068 (nonNorA pump overproducer) (Table 4).
Setting [11] is: S. aureus K2068, EPI at 4X the MEC for EtBr, VX-710 at 100 μg/ml.

The structures appear in SMILES notation. Read-outs that look alike come from different tables or passages of the source. Where only a bound is given, the exact number is not on record here.

Turning to `COc1cc(C(=O)C(=O)N(C)[C@@H](Cc2ccc(Cl)cc2)C(=O)N(Cc2ccccc2)C(CCc2ccncc2)CCc2ccncc2)cc(OC)c1OC` [C-9, (S)—N-Benzyl-2-(methyl-(2-oxo-2-(3,4,5-trimethoxyphenyl)acetyl)amino)-3-(4-chloro-phenyl)-N-(3-pyridin-4-yl-1-(2-pyridin-4-yl-ethyl)propyl)propionamide], in the test on E. faecalis ATCC 29212 (setting [4]), the “Fold-reduction in EtBr MIC” value worked out at 2. Further, the MIC in the test with E. faecalis ATCC 29212 (setting [5]) was over 100 µg/mL. Also, the MIC in the test on E. faecalis ATCC 29212 (setting [6]) worked out at 3.1 µg/mL. Moreover, the “intrinsic antibacterial activity of EPI” value in the test with E. faecalis ATCC 29212 is “no intrinsic antibacterial activity”. In addition, the “Fold-reduction in EtBr MIC” value with S. pneumoniae ATCC 10015 (setting [7]) was 2. Also, in the test on S. pneumoniae ATCC 10015 (setting [8]), the MIC was over 100 µg/mL. The MIC in the test with S. pneumoniae ATCC 10015 (setting [9]) amounted to 1 µg/mL. Moreover, in the test on S. pneumoniae ATCC 10015 (S. pneumoniae), the “intrinsic antibacterial activity of EPI” value is “no intrinsic antibacterial activity”. In addition, the “loss of EtBr fluorescence over time (FIG. 1)” value in the test on S. aureus ATCC 29213 is on record as “much more gradual loss of fluorescence”. Besides, in test [1], the “reduction of MIC of ciprofloxacin” value came to 8 fold, the “reduction of MIC of gatifloxacin” value turned out to be 4 fold, the “reduction of MIC of levofloxacin” value worked out at 2 fold and the “reduction of MIC of norfloxacin” value stood at 8 fold. Moreover, in test [1], the MIC stood at 3.1 µg/mL and the “Fold-reduction in MIC” value is 2. The “MIC of gatifloxacin with EPI” value in test [1] (setting [10]) was determined as 0.5 µg/mL. Besides, in test [1] (setting [11]), the “MIC of ciprofloxacin with EPI” value was found to be 1 µg/mL, the “MIC of gatifloxacin with EPI” value was 0.5 µg/mL, the “MIC of gentamicin with EPI” value worked out at 0.063 µg/mL and the “MIC of levofloxacin with EPI” value was 0.5 µg/mL. In test [1] (setting [11]), the “MIC of norfloxacin with EPI” value was determined as 4 µg/mL. Also, in the test with B. subtilis, the “reduction of the MIC of EtBr” value turned out to be 8 fold. For the same molecule, the efflux inhibitory activity entry in test [2] is recorded as “some efflux inhibitory activity was observed”. Further, in test [3], the “activity against efflux of EtBr” value is “much less active”.
As to `COC(=O)[C@H]1[C@H]2C[C@@H]3c4[nH]c5cc(OC)ccc5c4CCN3C[C@H]2C[C@@H](OC(=O)c2cc(OC)c(OC)c(OC)c2)[C@@H]1OC` [reserpine, reference compound], the “Fold-reduction in EtBr MIC” value with E. faecalis ATCC 29212 (setting [4]) turned out to be 8; in the test on S. pneumoniae ATCC 10015 (setting [7]), 50. The MIC with E. faecalis ATCC 29212 (setting [5]) is over 100 µg/mL; in the test with E. faecalis ATCC 29212 (setting [6]), 0.8 µg/mL; in the test with S. pneumoniae ATCC 10015 (setting [8]), 50 µg/mL; in the test with S. pneumoniae ATCC 10015 (setting [9]) it was 0.04 µg/mL; in the test with S. pneumoniae ATCC 10015 (S. pneumoniae, read-out: MIC of EPI alone) it was 50 µg/mL; in test [1] it was 1.6 µg/mL. In the test with S. pneumoniae ATCC 10015 (S. pneumoniae, reserpine 25 μg/ml (maximal subinhibitory concentration)), the “reduction in the MIC of EtBr” value is 50 fold. Moreover, the “MIC of gatifloxacin with EPI” value in test [1] (setting [10]) and in test [1] (setting [11]) was 0.25 µg/mL each time. In addition, the “MIC of ciprofloxacin with EPI” value in test [1] (setting [11]) stood at 0.5 µg/mL. Besides, the “MIC of gentamicin with EPI” value in test [1] (setting [11]) came to 0.063 µg/mL. Besides, the “MIC of levofloxacin with EPI” value in test [1] (setting [11]) was 0.5 µg/mL. Besides, the “MIC of norfloxacin with EPI” value in test [1] (setting [11]) was 1 µg/mL. Further, the “Fold-reduction in MIC” value in test [1] is 4.
`COc1cc(C(=O)C(=O)N2CCCC[C@H]2C(=O)OC(CCCc2cccnc2)CCCc2cccnc2)cc(OC)c1OC` [A-106]: in the test on E. faecalis ATCC 29212 (E. faecalis ATCC 29212, EPI alone), the “MIC of EPI” value was over 100 µg/mL. Moreover, in the test on E. faecalis ATCC 29212 (setting [4]), the “Fold-reduction in EtBr MIC” value turned out to be 8 and the “MIC of EtBr with EPI” value was 0.8 µg/mL. Moreover, the “intrinsic antibacterial activity of EPI” value in the test on E. faecalis ATCC 29212 is reported as “no intrinsic antibacterial activity”. In addition, the “MIC of EPI” value in the test with S. pneumoniae ATCC 10015 (S. pneumoniae ATCC 10015, EPI alone) was over 100 µg/mL. For the same molecule, in the test with S. pneumoniae ATCC 10015 (setting [7]), the “Fold-reduction in EtBr MIC” value is “≧16” and the “MIC of EtBr with EPI” value is “≦0.125 μg/ml”. The “intrinsic antibacterial activity of EPI” value in the test with S. pneumoniae ATCC 10015 (S. pneumoniae) was “no intrinsic antibacterial activity”. Moreover, the “loss of EtBr fluorescence over time (FIG. 1)” value in the test with S. aureus ATCC 29213 was “much more gradual loss of fluorescence”. Further, in test [1], the “reduction of MIC of ciprofloxacin” value is reported as 4 fold, the “reduction of MIC of gatifloxacin” value is listed as 2 fold, the “reduction of MIC of levofloxacin” value was found to be 2 fold and the “reduction of MIC of norfloxacin” value was 2 fold. Moreover, in test [1], the “Fold-reduction in MIC” value is 4. For the same molecule, the “MIC of gatifloxacin with EPI” value in test [1] (setting [10]) was 0.25 µg/mL. In test [1] (setting [11]), the “MIC of EtBr with EPI” value came to 0.4 µg/mL, the “MIC of ciprofloxacin with EPI” value amounted to 0.5 µg/mL, the “MIC of gatifloxacin with EPI” value worked out at 0.25 µg/mL and the “MIC of gentamicin with EPI” value turned out to be 0.063 µg/mL. Further, in test [1] (setting [11]), the “MIC of levofloxacin with EPI” value is 0.5 µg/mL and the “MIC of norfloxacin with EPI” value came to 1 µg/mL. In addition, the “reduction of the MIC of EtBr” value in the test on B. subtilis came to 8 fold. Besides, in test [2], the efflux inhibitory activity result is given as “some efflux inhibitory activity was observed”. Also, the “activity against efflux of EtBr” value in test [3] is “much less active”.
